Results on 5 compounds are retold here after PubChem BioAssay (NCI).

“And” between values parts separate entries of the source, which are not always exact repeats. Identical values can stand only once.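 How tested: cells in 96-well plates exposed to compound for 48 hours at five concentrations. At the GI50, growth is halved. TGI: total growth inhibition.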

Some test systems named below: DLD-1 colon; DMS 114 small cell lung; DMS 273 small cell lung; KM20L2 colon; M19-MEL melanoma; SNB-78 CNS; HOP-18 NSCLC; RXF-631 renal; P388 leukemia; P388/ADR leukemia; SN12K1 renal; XF 498 CNS.
Assay in all cases: NCI tumour cell line growth inhibition, 48 h

Regarding `COc1c(O)c(C=O)c2c(O)c(-c3c(C)cc4c(C(C)C)c(OC)c(O)c(C=O)c4c3O)c(C)cc2c1C(C)C`, the TGI in the experiment on DLD-1 colon turned out to be 15800 nM; in the experiment with DMS 114 small cell lung, 6930 nM; in the experiment with DMS 273 small cell lung it was 14900 nM; in the experiment on KM20L2 colon, 19900 nM; in the experiment with M19-MEL melanoma, 12400 nM; in the experiment on SNB-78 CNS it was 52300 nM.

As to `C/C=C/c1cc(=O)c([C@@H]2OC(=O)c3cc(OC)cc(OC)c32)co1`, the TGI in the experiment on DMS 114 small cell lung is 56600 nM; in the experiment with KM20L2 colon it was above 100000 nM; in the experiment on M19-MEL melanoma it was above 100000 nM.

Consider `[Cl][Sn]([c]1ccccc1)([c]1ccccc1)[c]1ccccc1`, for which the GI50 in the experiment on DLD-1 colon was 37.8 nM and < 10 nM; in the experiment with DMS 114 small cell lung, 23.7 nM and 18.6 nM; in the experiment on DMS 273 small cell lung it was 28.3 nM; in the experiment on HOP-18 NSCLC, 29.3 nM; with KM20L2 colon it was 34 nM and 18.6 nM; with M19-MEL melanoma it was 30.6 nM and 18.1 nM. In addition, the GI50 in the experiment with RXF-631 renal was 47.2 nM; in the experiment with SNB-78 CNS, 84.7 nM and 21.9 nM. Further, the TGI in the experiment on DLD-1 colon was 140 nM and 28.2 nM; with DMS 114 small cell lung it was 62 nM and 102 nM; in the experiment on DMS 273 small cell lung, 76.1 nM; with HOP-18 NSCLC it was 113 nM; in the experiment on KM20L2 colon, 110 nM and 45.4 nM; in the experiment with M19-MEL melanoma, 96.9 nM and 43 nM. The TGI with RXF-631 renal was 149 nM; in the experiment with SNB-78 CNS, 439 nM and 85.1 nM.

As for `COc1cc2ccc(=O)oc2cc1O`, the TGI with DLD-1 colon stood at 552000 nM; in the experiment with DMS 114 small cell lung it was 335000 nM; in the experiment with DMS 273 small cell lung, 99600 nM; with HOP-18 NSCLC, 521000 nM; with KM20L2 colon it was 614000 nM; in the experiment with M19-MEL melanoma, 328000 nM. In addition, the TGI in the experiment on P388 leukemia was 233000 nM; in the experiment on P388/ADR leukemia it was 103000 nM; in the experiment with SN12K1 renal it was 236000 nM; with SNB-78 CNS it was above 625000 nM; in the experiment with XF 498 CNS, 337000 nM.

On to `NC(=O)c1cccc([N+](=O)[O-])c1`, for which the TGI with DLD-1 colon, with DMS 114 small cell lung, with DMS 273 small cell lung, in the experiment on KM20L2 colon, with M19-MEL melanoma and with SNB-78 CNS was above 100000 nM in each case. Also, in the experiment with XF 498 CNS, the TGI was above 100000 nM.
